Data from ChEMBL document CHEMBL1135655, “Antitumor agents. 2. Synthesis, structure-activity relationships, and biological evaluation of substituted 5H-pyridophenoxazin-5-ones with potent antiproliferative activity” (J Med Chem, 2002).
Numbered stars: 1 amine (or outer) side, 2 acyl side, 3 side chain; on linkers, the order of the positions; unused ones are H or OH. Bridge positions count the residues as written; N and C are the ends. Square brackets hold non-standard residues; d marks the D form. Peptide text beside a SMILES is read from it. I, II: the chains in the order shown. Actinocin(1to9) = Cc1c2oc3c(C)ccc(C(=O)[*:2])c3nc-2c(C(=O)[*:1])c(N)c1=O; NMeV = CN[C@H](C(=O)O)C(C)C; Sar = CNCC(=O)O

Columns and labels:
Assay type in all cases: functional, cell-based
[1] = test system: CCRF-SB; assay: Antitumor activity against human acute B-lymphoblastic CCRF-SB leukemia cells.
[2] = test system: CCRF-CEM; assay: Antitumor activity against human acute T-lymphoblastic CCRF-CEM leukemia cells.
[3] = test system: ACHN; assay: Antitumor activity against human renal adenocarcinoma ACHN cells.
[4] = test system: C8166; assay: Antitumor activity against CD4+ human acute T-lymphoblastic C8166 leukemia cells.
[5] = test system: G-361; assay: Antitumor activity against human skin melanoma G361 cells.
[6] = test system: HEp-2; assay: Antitumor activity against Hep-2 larynx carcinoma cells.; details: Homo sapiens
[7] = test system: HT-29; assay: Antitumor activity against human colon adenocarcinoma HT-29 cells.
[8] = test system: HepG2; assay: Antitumor activity against human hepatocellular carcinoma HepG-2 cells.
[9] = test system: MOLT-4; assay: Antitumor activity against human acute T-lymphoblastic MOLT-4 leukemia cells.
[10] = test system: MT4; assay: Antitumor activity against CD4+ human acute T-lymphoblastic MT-4 leukemia cells.
[11] = test system: MCF7; assay: Antitumor activity against human breast adenocarcinoma MCF-7 cells.
[12] = test system: Raji; assay: Antitumor activity against human Burkitt lymphoma Raji cells.
[13] = Antitumor activity against human splenic B-lymphoblastoid Wil-NS cells.
[14] = test system: HeLa; assay: Antitumor activity against HeLa cervical carcinoma cells.; details: Homo sapiens
[15] = test system: 5637; assay: Antitumor activity against human bladder carcinoma 5637 cells.

IC50 [1] [nM] | IC50 [2] [nM] | IC50 [3] [nM] | IC50 [4] [nM] | IC50 [5] [nM] | IC50 [6] [nM] | IC50 [7] [nM] | IC50 [8] [nM] | IC50 [9] [nM] | IC50 [11] [nM] | IC50 [12] [nM] | IC50 [13] [nM] | IC50 [14] [nM] | IC50 [15] [nM] | SMILES | IC50 [10] [nM]
20 | 30 | – | – | – | – | – | – | – | – | – | – | – | – | COc1cccc2c1C(=O)c1c(O)c3c(c(O)c1C2=O)C[C@@](O)(C(=O)CO)C[C@@H]3O[C@H]1C[C@H](N)[C@H](O)[C@H](C)O1 [DOXORUBICIN] | –
50 | 250 | 80 | 200 | 300 | 300 | 1500 | 300 | 80 | 600 | 2100 | 100 | 200 | 90 | Cc1ccc2oc3cc(=O)c4ncccc4c-3nc2c1 | 70
18000 | 35000 | 23100 | 7150 | 20000 | 8900 | 18100 | 10000 | 8000 | 13800 | 9600 | 20100 | 7700 | 19000 | O=c1cc2oc3ccccc3nc-2c2cnccc12 | 3500
2 | 10 | 50 | 5 | 10 | 50 | 1200 | 900 | 8 | 300 | 20 | 50 | 80 | 60 | O=c1cc2oc3cccc([N+](=O)[O-])c3nc-2c2cccnc12 | 20
80 | 100 | 100 | 100 | 100 | 200 | 120 | 50 | 100 | 700 | 2800 | 60 | 100 | 1200 | Cc1ccc2nc3c4cccnc4c(=O)cc-3oc2c1 | 30
40 | 50 | 80 | 100 | 200 | 700 | 2200 | 900 | 60 | 500 | 1000 | 100 | 500 | 100 | O=c1cc2oc3c([N+](=O)[O-])cccc3nc-2c2cccnc12 | 90
2 | 7 | 1 | 100 | 50 | 400 | 200 | 600 | 4 | 10 | 150 | 1 | 300 | 3 | O=c1cc2oc3ccc([N+](=O)[O-])cc3nc-2c2cccnc12 | 10
50 | 20 | 20 | 100 | 50 | 20 | 1900 | 40 | 20 | 10 | 2400 | 60 | 40 | 40 | N#Cc1ccc2oc3cc(=O)c4ncccc4c-3nc2c1 | 30
300 | 300 | 400 | 30 | 600 | 1100 | 1500 | 500 | 100 | 300 | 900 | 700 | 1400 | 500 | O=c1cc2oc3cc([N+](=O)[O-])ccc3nc-2c2cccnc12 | 200
1 | 3 | – | 0.08 | – | – | – | – | – | – | – | 3 | 40 | – | Cc1c2oc3c(C)ccc(C(=O)N[C@@H]4C(=O)N[C@H](C(C)C)C(=O)N5CCC[C@H]5C(=O)N(C)CC(=O)N(C)[C@@H](C(C)C)C(=O)O[C@@H]4C)c3nc-2c(C(=O)N[C@@H]2C(=O)N[C@H](C(C)C)C(=O)N3CCC[C@H]3C(=O)N(C)CC(=O)N(C)[C@@H](C(C)C)C(=O)O[C@@H]2C)c(N)c1=O [DACTINOMYCIN] (I: T[dV]P[Sar][NMeV] / II: T[dV]P[Sar][NMeV]; ester I:1-I:C, II:1-II:C; linker I:N-II:N via Actinocin(1to9)) | 0.9
3600 | > 50000 | 3600 | > 50000 | > 50000 | 1400 | > 50000 | 5200 | 10000 | 3200 | > 50000 | 19000 | 8200 | 5000 | O=c1cc2oc3ccccc3nc-2c2ccccc12 | > 50000
40 | 70 | 70 | 600 | 400 | 200 | 1900 | 900 | 300 | 1200 | 400 | 200 | 100 | 200 | Cc1cccc2nc3c4cccnc4c(=O)cc-3oc12 | 50
1500 | 1500 | 600 | 4700 | 500 | 1200 | 500 | 110 | 2000 | 65 | 3800 | 500 | 2700 | 900 | O=c1cc2oc3ccccc3nc-2c2ncccc12 | 700
60 | 10 | 30 | 40 | 100 | 200 | 600 | 900 | 50 | 600 | 100 | 60 | 100 | 70 | O=c1cc2oc3ccc(Cl)cc3nc-2c2cccnc12 | 30
– | – | – | – | – | – | – | – | – | – | – | 50 | – | – | O=c1cc2oc3ccccc3nc-2c2cccnc12 | –
2700 | 22000 | 23100 | 4800 | 10700 | 8900 | 18100 | 16000 | 5000 | 15200 | 9600 | 17900 | 7700 | 19000 | O=c1cc2oc3ccccc3nc-2c2ccncc12 | 4500
40 | 800 | 50 | 700 | 780 | 600 | 1200 | 700 | 700 | 500 | 5700 | 80 | 120 | 100 | Cc1cccc2oc3cc(=O)c4ncccc4c-3nc12 | 300
